{"source": "patent US20080292619A1", "about": "“Pharmaceutical Composition Containing Meltrin Antagonist” (MOCHIDA PHARMACEUTICAL CO., LTD., priority 2004, published 2008)", "system": "human meltrin α RNA", "test": "Suppression of human meltrin α expression by antisense compound in RD cell (real time PCR)", "format": "cell-based", "settings": "RD cell", "procedure,_shortened": "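RD cells transfected with heat-denatured antisense oligodeoxynucleotide plus Lipofectin in Opti-MEM for 4 h at 37° C, then cultured 18 h. Meltrin α RNA quantified by TaqMan RT-PCR against plasmid standard curve, GAPDH-corrected; suppression vs untreated cells, rated +/++/+++ for ≥30/50/70%.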", "note": "In the oligonucleotide strings, read from the 5' end, every base follows the letter of its sugar. An asterisk marks phosphorothioate; unmarked linkages are phosphodiester. Other units and linkages are bracketed, terminal groups are in braces. A string of capitals states the bases alone. d = 2'-deoxy (DNA)", "data": [{"substance": "H075-OMe1: chimeric antisense oligonucleotide TGCTGcaactgctgaACACC, uppercase 2′-methoxy nucleotides, lowercase phosphorothioate nucleotides (TGCTGCAACTGCTGAACACC; 2'-O-methyl at 1, 2, 3, 4, 5, 16, 17, 18, 19, 20, other sugars, backbone and T or U not given here; lowercase gap nucleotides phosphorothioate)", "values": [{"measurement": "suppression rate of expression, 200 nM", "setting": "chimeric 2′-methoxy antisense oligonucleotides", "result": "+ (“+” when the suppression rate was at least 30%)"}]}, {"substance": "H230: taggaaaactgttgacccca (dT*dA*dG*dG*dA*dA*dA*dA*dC*dT*dG*dT*dT*dG*dA*dC*dC*dC*dC*dA; antisense)", "values": [{"measurement": "suppression rate of expression, 200 nM", "setting": "corrected by GAPDH", "result": "++ (“++” when the suppression rate was at least 50%)"}]}, {"substance": "H150: ttggtgtggatattgtggag (dT*dT*dG*dG*dT*dG*dT*dG*dG*dA*dT*dA*dT*dT*dG*dT*dG*dG*dA*dG; antisense)", "values": [{"measurement": "suppression rate of expression, 50 nM", "setting": "corrected by GAPDH", "result": "+ (“+” when the suppression rate was at least 30%)"}, {"measurement": "suppression rate of expression, 200 nM", "setting": "corrected by GAPDH", "result": "+++ (“+++” when the suppression rate was at least 70%)"}]}, {"substance": "H153: ctgttgaaaaaaggtgtcgg (dC*dT*dG*dT*dT*dG*dA*dA*dA*dA*dA*dA*dG*dG*dT*dG*dT*dC*dG*dG; antisense)", "values": [{"measurement": "suppression rate of expression, 200 nM", "setting": "corrected by GAPDH", "result": "++ (“++” when the suppression rate was at least 50%)"}]}, {"substance": "H018: cagggcgagcaggagggcgc (CAGGGCGAGCAGGAGGGCGC; antisense; DNA, all phosphorothioate, methylation of C not given here)", "values": [{"measurement": "suppression rate of expression, 50 nM", "setting": "corrected by GAPDH", "result": "+ (“+” when the suppression rate was at least 30%)"}, {"measurement": "suppression rate of expression, 200 nM", "setting": "corrected by GAPDH", "result": "++ (“++” when the suppression rate was at least 50%)"}]}, {"substance": "H065: ccccagactggtctgccgtg (dC*dC*dC*dC*dA*dG*dA*dC*dT*dG*dG*dT*dC*dT*dG*dC*dC*dG*dT*dG; antisense)", "values": [{"measurement": "suppression rate of expression, 200 nM", "setting": "corrected by GAPDH", "result": "++ (“++” when the suppression rate was at least 50%)"}]}, {"substance": "H072: gcagcctcctttctcaaccg (dG*dC*dA*dG*dC*dC*dT*dC*dC*dT*dT*dT*dC*dT*dC*dA*dA*dC*dC*dG; antisense)", "values": [{"measurement": "suppression rate of expression, 200 nM", "setting": "corrected by GAPDH", "result": "+ (“+” when the suppression rate was at least 30%)"}]}, {"substance": "H240: acagatgcatgctatacgag (DNA dA*dC*dA*dG*dA*dT*dG*dC*dA*dT*dG*dC*dT*dA*dT*dA*dC*dG*dA*dG; antisense)", "values": [{"measurement": "suppression rate of expression, 200 nM", "setting": "corrected by GAPDH", "result": "++ (“++” when the suppression rate was at least 50%)"}]}, {"substance": "H144: cagaggcttctgaggggggt (CAGAGGCTTCTGAGGGGGGT; antisense; DNA, all phosphorothioate, methylation of C not given here)", "values": [{"measurement": "suppression rate of expression, 50 nM", "setting": "corrected by GAPDH", "result": "+ (“+” when the suppression rate was at least 30%)"}, {"measurement": "suppression rate of expression, 200 nM", "setting": "corrected by GAPDH", "result": "++ (“++” when the suppression rate was at least 50%)"}]}, {"substance": "H145 + 10: ccgagttgttctggccagag (dC*dC*dG*dA*dG*dT*dT*dG*dT*dT*dC*dT*dG*dG*dC*dC*dA*dG*dA*dG; antisense)", "values": [{"measurement": "suppression rate of expression, 50 nM", "setting": "corrected by GAPDH", "result": "++ (“++” when the suppression rate was at least 50%)"}]}, {"substance": "H196: agggaggtggcggtttgcag (dA*dG*dG*dG*dA*dG*dG*dT*dG*dG*dC*dG*dG*dT*dT*dT*dG*dC*dA*dG; antisense)", "values": [{"measurement": "suppression rate of expression, 50 nM", "setting": "corrected by GAPDH", "result": "+ (“+” when the suppression rate was at least 30%)"}, {"measurement": "suppression rate of expression, 200 nM", "setting": "corrected by GAPDH", "result": "+++ (“+++” when the suppression rate was at least 70%)"}]}, {"substance": "H145 + 4: tgttctggccagaggatctg (dT*dG*dT*dT*dC*dT*dG*dG*dC*dC*dA*dG*dA*dG*dG*dA*dT*dC*dT*dG; antisense)", "values": [{"measurement": "suppression rate of expression, 50 nM", "setting": "corrected by GAPDH", "result": "++ (“++” when the suppression rate was at least 50%)"}]}, {"substance": "H144 + 9: atctgcaggcagaggcttct (ATCTGCAGGCAGAGGCTTCT; antisense; DNA, all phosphorothioate, methylation of C not given here)", "values": [{"measurement": "suppression rate of expression, 50 nM", "setting": "corrected by GAPDH", "result": "+ (“+” when the suppression rate was at least 30%)"}]}, {"substance": "H183: gtctgcaacccaggttctca (dG*dT*dC*dT*dG*dC*dA*dA*dC*dC*dC*dA*dG*dG*dT*dT*dC*dT*dC*dA; antisense)", "values": [{"measurement": "suppression rate of expression, 200 nM", "setting": "corrected by GAPDH", "result": "++ (“++” when the suppression rate was at least 50%)"}]}, {"substance": "H076: tccaggctggtctccaagtc (dT*dC*dC*dA*dG*dG*dC*dT*dG*dG*dT*dC*dT*dC*dC*dA*dA*dG*dT*dC)", "values": [{"measurement": "suppression rate of expression, 200 nM", "setting": "corrected by GAPDH", "result": "++ (“++” when the suppression rate was at least 50%)"}]}, {"substance": "H136 + 17: gagggacattcaggccgttg (GAGGGACATTCAGGCCGTTG; antisense; DNA, all phosphorothioate, methylation of C not given here)", "values": [{"measurement": "suppression rate of expression, 50 nM", "setting": "corrected by GAPDH", "result": "+ (“+” when the suppression rate was at least 30%)"}]}, {"substance": "H034: acatgtccatggtagtaaca (ACATGTCCATGGTAGTAACA; antisense; DNA, all phosphorothioate, methylation of C not given here)", "values": [{"measurement": "suppression rate of expression, 200 nM", "setting": "corrected by GAPDH", "result": "++ (“++” when the suppression rate was at least 50%)"}]}, {"substance": "H070: ctgtccagtgtgtcatgatt (dC*dT*dG*dT*dC*dC*dA*dG*dT*dG*dT*dG*dT*dC*dA*dT*dG*dA*dT*dT; antisense)", "values": [{"measurement": "suppression rate of expression, 200 nM", "setting": "corrected by GAPDH", "result": "+ (“+” when the suppression rate was at least 30%)"}]}, {"substance": "H155: tccaactggagctgaaagat (dT*dC*dC*dA*dA*dC*dT*dG*dG*dA*dG*dC*dT*dG*dA*dA*dA*dG*dA*dT; antisense)", "values": [{"measurement": "suppression rate of expression, 200 nM", "setting": "corrected by GAPDH", "result": "++ (“++” when the suppression rate was at least 50%)"}]}, {"substance": "H169: catcctgtccagaatcccat (dC*dA*dT*dC*dC*dT*dG*dT*dC*dC*dA*dG*dA*dA*dT*dC*dC*dC*dA*dT; antisense)", "values": [{"measurement": "suppression rate of expression, 200 nM", "setting": "corrected by GAPDH", "result": "++ (“++” when the suppression rate was at least 50%)"}]}, {"substance": "H146: catgagtgagccgagttgtt (dC*dA*dT*dG*dA*dG*dT*dG*dA*dG*dC*dC*dG*dA*dG*dT*dT*dG*dT*dT; antisense)", "values": [{"measurement": "suppression rate of expression, 50 nM", "setting": "corrected by GAPDH", "result": "+ (“+” when the suppression rate was at least 30%)"}, {"measurement": "suppression rate of expression, 200 nM", "setting": "corrected by GAPDH", "result": "++ (“++” when the suppression rate was at least 50%)"}]}, {"substance": "H118: ggaggtgcccagtgggcctc (GGAGGTGCCCAGTGGGCCTC; antisense; DNA, all phosphorothioate, methylation of C not given here)", "values": [{"measurement": "suppression rate of expression, 50 nM", "setting": "corrected by GAPDH", "result": "+ (“+” when the suppression rate was at least 30%)"}, {"measurement": "suppression rate of expression, 200 nM", "setting": "corrected by GAPDH", "result": "++ (“++” when the suppression rate was at least 50%)"}]}, {"substance": "H251: aggaagggctaacatgccag (DNA dA*dG*dG*dA*dA*dG*dG*dG*dC*dT*dA*dA*dC*dA*dT*dG*dC*dC*dA*dG; antisense)", "values": [{"measurement": "suppression rate of expression, 200 nM", "setting": "corrected by GAPDH", "result": "+++ (“+++” when the suppression rate was at least 70%)"}]}, {"substance": "H085: gcgcacacagcgtccggctt (dG*dC*dG*dC*dA*dC*dA*dC*dA*dG*dC*dG*dT*dC*dC*dG*dG*dC*dT*dT; antisense)", "values": [{"measurement": "suppression rate of expression, 200 nM", "setting": "corrected by GAPDH", "result": "+ (“+” when the suppression rate was at least 30%)"}]}, {"substance": "H144 + 5: gcaggcagaggcttctgagg (GCAGGCAGAGGCTTCTGAGG; antisense; DNA, all phosphorothioate, methylation of C not given here)", "values": [{"measurement": "suppression rate of expression, 50 nM", "setting": "corrected by GAPDH", "result": "++ (“++” when the suppression rate was at least 50%)"}]}, {"substance": "H027: ttctttgctttcccgttgta (TTCTTTGCTTTCCCGTTGTA; antisense; DNA, all phosphorothioate, methylation of C not given here)", "values": [{"measurement": "suppression rate of expression, 200 nM", "setting": "corrected by GAPDH", "result": "+ (“+” when the suppression rate was at least 30%)"}]}, {"substance": "H107: ggcctccttgctgcaggggg (dG*dG*dC*dC*dT*dC*dC*dT*dT*dG*dC*dT*dG*dC*dA*dG*dG*dG*dG*dG; antisense)", "values": [{"measurement": "suppression rate of expression, 200 nM", "setting": "corrected by GAPDH", "result": "++ (“++” when the suppression rate was at least 50%)"}]}, {"substance": "H133: ggtgggtaggaatctggcgg (GGTGGGTAGGAATCTGGCGG; antisense; DNA, all phosphorothioate, methylation of C not given here)", "values": [{"measurement": "suppression rate of expression, 50 nM", "setting": "corrected by GAPDH", "result": "+++ (“+++” when the suppression rate was at least 70%)"}, {"measurement": "suppression rate of expression, 200 nM", "setting": "corrected by GAPDH", "result": "+++ (“+++” when the suppression rate was at least 70%)"}]}, {"substance": "H140: ggacgctaggtgcacgtggg (GGACGCTAGGTGCACGTGGG; antisense; DNA, all phosphorothioate, methylation of C not given here)", "values": [{"measurement": "suppression rate of expression, 50 nM", "setting": "corrected by GAPDH", "result": "+ (“+” when the suppression rate was at least 30%)"}, {"measurement": "suppression rate of expression, 200 nM", "setting": "corrected by GAPDH", "result": "+++ (“+++” when the suppression rate was at least 70%)"}]}, {"substance": "H136: ttgaggggtctgctgatgtc (TTGAGGGGTCTGCTGATGTC; antisense; DNA, all phosphorothioate, methylation of C not given here)", "values": [{"measurement": "suppression rate of expression, 50 nM", "setting": "corrected by GAPDH", "result": "+ (“+” when the suppression rate was at least 30%)"}, {"measurement": "suppression rate of expression, 200 nM", "setting": "corrected by GAPDH", "result": "+++ (“+++” when the suppression rate was at least 70%)"}]}, {"substance": "H019: ggcgcgagcagagcaccggc (GGCGCGAGCAGAGCACCGGC; antisense; DNA, all phosphorothioate, methylation of C not given here)", "values": [{"measurement": "suppression rate of expression, 200 nM", "setting": "corrected by GAPDH", "result": "++ (“++” when the suppression rate was at least 50%)"}]}, {"substance": "H144 + 14: agaggatctgcaggcagagg (AGAGGATCTGCAGGCAGAGG; antisense; DNA, all phosphorothioate, methylation of C not given here)", "values": [{"measurement": "suppression rate of expression, 50 nM", "setting": "corrected by GAPDH", "result": "++ (“++” when the suppression rate was at least 50%)"}]}, {"substance": "H170: ccttgatcagaaagcaaaca (dC*dC*dT*dT*dG*dA*dT*dC*dA*dG*dA*dA*dA*dG*dC*dA*dA*dA*dC*dA; antisense)", "values": [{"measurement": "suppression rate of expression, 200 nM", "setting": "corrected by GAPDH", "result": "+ (“+” when the suppression rate was at least 30%)"}]}, {"substance": "H137 + 1: ggctgagggacattcaggcc (GGCTGAGGGACATTCAGGCC; antisense; DNA, all phosphorothioate, methylation of C not given here)", "values": [{"measurement": "suppression rate of expression, 50 nM", "setting": "corrected by GAPDH", "result": "++ (“++” when the suppression rate was at least 50%)"}]}]}
